One block for each substance: values may come before it.
Columns and labels:
blood glucose = experiment: In vivo efficacy of insulin formulations (blood glucose after subcutaneous injection); set-up: species or system mice; conditions: for T-Test probability level of the difference against the Tris buffer, in vivo efficiency: mice
Protocol: The in vivo efficacy of insulin formulations was studied in female mice CD-1, 7-8 weeks old, 0.3 IU of protein dose (same activity) was injected in mice subcutaneously. Animals were divided into seven groups of four. insulin formulations were given to each animal of each group in the following manner; insulin (0.3 IU/mouse), Lantus (Aventis) insulin-PSA conjugate (14 KDa), PBS, one drop of blood was taken from each animal and was measured blood glucose by ACCU-CHEK Active (Roche Diagnostics).

blood sugar levels = conditions: rabbits, calculated on a molar basis; cited from earlier work
[1] = cyanuric chloride activated PEG (2000 Da) conjugates; cited from earlier work
[2] = Isoelectric focusing (IEF) gel; type: physicochemical; conditions: IEF gel pH 3-10
Protocol: Novex® IEF gel was used to determine differences in insulin and CAO-insulin conjugate isoelectric points. Samples was dissolved to a concentration of 0.5 mg/ml. 5 ul sample was diluted with 5 ul Novex IEF Sample Buffer pH 3-10 and then loaded the protein sample on the gel.

[3] = Colominic acid (CAO) stability at different pH; type: physicochemical
Protocol: Colominic acid samples (CA and CAO) were dissolved in NaNO3 (0.2M), CH3CN (10%; 5 mg/ml) and were chromatographed on over 2× GMPWXL columns with detection by refractive index (GPC system: VE1121 GPC solvent pump, VE3580 RI detector and collation with Trisec 3 software (Viscotek Europe Ltd). Samples (5 mg/ml) were filtered over 0.45 μm nylon membrane and run at […] with 0.2M NaNO3 and CH3CN (10%) as the mobile phase.
The rules for chemistry of the PEGylation cannot be applied to polysialylation as such because of the difference in the physiochemical properties of these molecules. PSA is an acid labile polymer and is stable for weeks around neutral pH (FIG. 3). […] Polysialic acid is highly hydrophilic whereas PEG is an ampiphilic molecule in nature. When the polysialylation is carried out using conditions used for PEGylation, aggregation and precipitation of the proteins is seen in many cases.

liver enzymes = conditions: cited from earlier work

Substance: insulin [reference compound]
T-Test probability level of the difference against the Tris buffer, in vivo efficiency (blood glucose; time 32.0 minutes): *** (*** P < 0.001) | T-Test probability level of the difference against the Tris buffer, in vivo efficiency (blood glucose; time 64.5 minutes): *** (*** P < 0.001) | T-Test probability level of the difference against the Tris buffer, in vivo efficiency (blood glucose; time 99.4 minutes): *** (*** P < 0.001)

Substance: mPEG(1500)-B1-insulin: Obermeier et al. site-specific PEG-insulin conjugate modified at residue PheB1
insulin effect on reduction of blood sugar levels (blood sugar levels): 100%

Substance: 32 kDa CAO-insulin: conjugate of insulin with 32 kDa oxidised colominic acid
T-Test probability level of the difference against the Tris buffer, in vivo efficiency (blood glucose; time 32.0 minutes): *** (*** P < 0.001) | T-Test probability level of the difference against the Tris buffer, in vivo efficiency (blood glucose; time 64.5 minutes): *** (*** P < 0.001) | T-Test probability level of the difference against the Tris buffer, in vivo efficiency (blood glucose; time 99.4 minutes): *** (*** P < 0.001) | T-Test probability level of the difference against the Tris buffer, in vivo efficiency (blood glucose; time 1354.9 minutes): * (* P < 0.05)

Substance: 21 kDa CAO-insulin: conjugate of insulin with 21 kDa oxidised colominic acid
T-Test probability level of the difference against the Tris buffer, in vivo efficiency (blood glucose; time 64.5 minutes): *** (*** P < 0.001) | T-Test probability level of the difference against the Tris buffer, in vivo efficiency (blood glucose; time 99.4 minutes): *** (*** P < 0.001) | T-Test probability level of the difference against the Tris buffer, in vivo efficiency (blood glucose; time 230.2 minutes): * (* P < 0.05)

Substance: PEG-insulin conjugates: Davis et al. conjugates of insulin with cyanuric chloride activated PEG (2000 Da)
activity (partially active) [1]: about 50%

Substance: 13 kDa CAO-insulin: N-terminal conjugate of insulin with 13 kDa oxidised colominic acid (polysialic acid)
T-Test probability level of the difference against the Tris buffer, in vivo efficiency (blood glucose; time 32.0 minutes): ** (** P < 0.01) | T-Test probability level of the difference against the Tris buffer, in vivo efficiency (blood glucose; time 64.5 minutes): *** (*** P < 0.001) | T-Test probability level of the difference against the Tris buffer, in vivo efficiency (blood glucose; time 99.4 minutes): *** (*** P < 0.001) | isoelectric point (pI) [2]: no fixed isoelectric point

Substance: 15 KDa CAO-insulin (Sigma): conjugate of insulin with 15 kDa oxidised colominic acid
pH effect (of polysialylation) on in vivo efficiency (blood glucose; conjugation pH 6.0 versus 7.4): pH 6.0 is better than 7.4 | probability level of the difference against the PBS buffer (blood glucose; time 30 (unit not given)): ** (**P < 0.01) | probability level of the difference against the PBS buffer (blood glucose; time 60 (unit not given)): *** (***P < 0.001) | probability level of the difference against the PBS buffer (blood glucose; time 90 (unit not given)): *** (***P < 0.001) | probability level of the difference against the PBS buffer (blood glucose; time 120 (unit not given)): ** (**P < 0.01) | probability level of the difference against the PBS buffer (blood glucose; time 150 (unit not given)): * (*P < 0.05)

Substance: 27 kDa CAO-insulin: conjugate of insulin with 27 kDa oxidised colominic acid
T-Test probability level of the difference against the Tris buffer, in vivo efficiency (blood glucose; time 32.0 minutes): ** (** P < 0.01) | T-Test probability level of the difference against the Tris buffer, in vivo efficiency (blood glucose; time 64.5 minutes): *** (*** P < 0.001) | T-Test probability level of the difference against the Tris buffer, in vivo efficiency (blood glucose; time 99.4 minutes): ** (** P < 0.01) | T-Test probability level of the difference against the Tris buffer, in vivo efficiency (blood glucose; time 230.2 minutes): ** (** P < 0.01) | T-Test probability level of the difference against the Tris buffer, in vivo efficiency (blood glucose; time 1354.9 minutes): ** (** P < 0.01) | isoelectric point (pI) [2]: no fixed isoelectric point

slow degradation, % of initial MW ([3]; pH 4.0, after 48 hours): 70 % of initial MW | slow degradation, % of initial MW ([3]; pH 5.0, after 48 hours): 92 % of initial MW | stability of CAO ([3]; pH 6.0): stable for 8 days | stability of CAO ([3]; pH 7.4): stable for 8 days
Substance: oxidised colominic acid [CAO]

Substance: 21.5 kd CAO-insulin: conjugate of insulin with 21.5 kDa oxidised colominic acid (FIG. 9)
effect on decreasing blood glucose in mice (blood glucose; among conjugates of FIG. 9 (10, 15, 21.5 kDa), PBS control): most significant effect on the decreasing blood glucose in mice

Substance: PEG(1500)-B1-insulin: Geiger et al./Ehrat et al. PEG-insulin adduct modified at residue PheB1
stability to liver enzymes versus native insulin (liver enzymes): far more stable

— patent US10300144B2, “N-terminal polysialylation” (Lipoxen Technologies Limited, priority 2006, dated 2019)
